Measured values reported in PubChem BioAssay AID1963830 (Molecular Pharmacology Branch, DTP, NCI, 2024).

Test system: 922993-354-T-J3-PDC complex spheroid viability
Experiment: Anticancer human tumor 922993-354-T-J3-PDC patient-derived endometrial carcinoma cell line growth inhibition [POLQ]
Settings: for IC50: curve of first compound; for viability, T/C: stronger effect = lower value
How it was run: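 PDC + HUVEC + MSC complex spheroids; POLQ inhibitors ± partner drugs; top conc. at/near clinical Cmax, else 10 microM (SN-38 1 microM), half-log dilutions; 37 degrees C, 5% CO2.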

[1] = second compound 0.0316 µM, first compound 0.0316 µM
[2] = second compound 0.0316 µM, first compound 0.1 µM
[3] = second compound 0.0316 µM, first compound 0.316 µM
[4] = second compound 0.0316 µM, first compound 1 µM
[5] = second compound 0.0316 µM, first compound 3.16 µM
[6] = second compound 0.0316 µM, first compound 10 µM
[7] = second compound 0.1 µM, first compound 0.0316 µM
[8] = second compound 0.1 µM, first compound 0.1 µM
[9] = second compound 0.1 µM, first compound 0.316 µM
[10] = second compound 0.1 µM, first compound 1 µM
[11] = second compound 0.1 µM, first compound 3.16 µM
[12] = second compound 0.1 µM, first compound 10 µM
[13] = second compound 0.316 µM, first compound 0.0316 µM
[14] = second compound 0.316 µM, first compound 0.1 µM
[15] = second compound 0.316 µM, first compound 0.316 µM
[16] = second compound 0.316 µM, first compound 1 µM
[17] = second compound 0.316 µM, first compound 3.16 µM
[18] = second compound 0.316 µM, first compound 10 µM
[19] = second compound 1 µM, first compound 0.0316 µM
[20] = second compound 1 µM, first compound 0.1 µM
[21] = second compound 1 µM, first compound 0.316 µM
[22] = second compound 1 µM, first compound 1 µM
[23] = second compound 1 µM, first compound 3.16 µM
[24] = second compound 1 µM, first compound 10 µM
[25] = second compound 3.16 µM, first compound 0.0316 µM
[26] = second compound 3.16 µM, first compound 0.1 µM
[27] = second compound 3.16 µM, first compound 0.316 µM
[28] = second compound 3.16 µM, first compound 1 µM
[29] = second compound 3.16 µM, first compound 3.16 µM
[30] = second compound 3.16 µM, first compound 10 µM
[31] = second compound 10 µM, first compound 0.0316 µM
[32] = second compound 10 µM, first compound 0.1 µM
[33] = second compound 10 µM, first compound 0.316 µM
[34] = second compound 10 µM, first compound 1 µM
[35] = second compound 10 µM, first compound 3.16 µM
[36] = second compound 10 µM, first compound 10 µM
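Also: spheroids exposed to the agents for one week.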
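For viability, T/C in this document: 100% = DMSO vehicle control wells.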

CC(=O)O[C@H]1C(=O)[C@@]2(C)[C@H]([C@H](OC(=O)c3ccccc3)[C@]3(O)C[C@H](OC(=O)[C@H](O)[C@@H](NC(=O)c4ccccc4)c4ccccc4)C(C)=C1C3(C)C)[C@]1(OC(C)=O)CO[C@@H]1C[C@@H]2O + COC1C(OC(N)=O)C(O)C(Oc2ccc3c(O)c(NC(=O)c4ccc(O)c(CC=C(C)C)c4)c(=O)oc3c2C)OC1(C)C gave an IC50 (second compound 0.0316 µM) of 2.64 µM, an IC50 (second compound 0.1 µM) greater than 3 µM and an IC50 (second compound 0.316 µM) of 2.99 µM. It also gave an IC50 (second compound 1 µM) greater than 3 µM, an IC50 (second compound 3.16 µM) greater than 3 µM and an IC50 (second compound 10 µM) of 2 µM. It also gave a viability, T/C (second compound 0.0316 µM, first compound 0.00949 µM) of 97%, a viability, T/C (second compound 0.0316 µM, first compound 0.03 µM) of 96.3% and a viability, T/C (second compound 0.0316 µM, first compound 0.0949 µM) of 95.1%. The viability, T/C (second compound 0.0316 µM, first compound 0.3 µM) was 105%, the viability, T/C (second compound 0.0316 µM, first compound 0.949 µM) was 85.5% and the viability, T/C (second compound 0.0316 µM, first compound 3 µM) was 45.6%. The viability, T/C (second compound 0.1 µM, first compound 0.00949 µM) was 102%, the viability, T/C (second compound 0.1 µM, first compound 0.03 µM) was 101% and the viability, T/C (second compound 0.1 µM, first compound 0.0949 µM) was 107%. The viability, T/C (second compound 0.1 µM, first compound 0.3 µM) was 106%, the viability, T/C (second compound 0.1 µM, first compound 0.949 µM) was 83.6% and the viability, T/C (second compound 0.1 µM, first compound 3 µM) was 55.8%. For the same compound, the viability, T/C (second compound 0.316 µM, first compound 0.00949 µM) was 97.1%, the viability, T/C (second compound 0.316 µM, first compound 0.03 µM) was 118% and the viability, T/C (second compound 0.316 µM, first compound 0.0949 µM) was 104%. The viability, T/C (second compound 0.316 µM, first compound 0.3 µM) was 97.7%, the viability, T/C (second compound 0.316 µM, first compound 0.949 µM) was 80.5% and the viability, T/C (second compound 0.316 µM, first compound 3 µM) was 49.8%. It also gave a viability, T/C (second compound 1 µM, first compound 0.00949 µM) of 96.9%, a viability, T/C (second compound 1 µM, first compound 0.03 µM) of 99.4% and a viability, T/C (second compound 1 µM, first compound 0.0949 µM) of 104%. The viability, T/C (second compound 1 µM, first compound 0.3 µM) was 104%, the viability, T/C (second compound 1 µM, first compound 0.949 µM) was 79.9% and the viability, T/C (second compound 1 µM, first compound 3 µM) was 53.2%. It also gave a viability, T/C (second compound 3.16 µM, first compound 0.00949 µM) of 99.2%, a viability, T/C (second compound 3.16 µM, first compound 0.03 µM) of 92.8% and a viability, T/C (second compound 3.16 µM, first compound 0.0949 µM) of 101%. For the same compound, the viability, T/C (second compound 3.16 µM, first compound 0.3 µM) was 99.3%, the viability, T/C (second compound 3.16 µM, first compound 0.949 µM) was 76.9% and the viability, T/C (second compound 3.16 µM, first compound 3 µM) was 54.9%. For the same compound, the viability, T/C (second compound 10 µM, first compound 0.00949 µM) was 84.7%, the viability, T/C (second compound 10 µM, first compound 0.03 µM) was 82.2% and the viability, T/C (second compound 10 µM, first compound 0.0949 µM) was 94.9%. For the same compound, the viability, T/C (second compound 10 µM, first compound 0.3 µM) was 68.9%, the viability, T/C (second compound 10 µM, first compound 0.949 µM) was 64% and the viability, T/C (second compound 10 µM, first compound 3 µM) was 43.3%.

For COc1cc(C2c3cc4c(cc3C(OC3OC5COC(C)OC5C(O)C3O)C3COC(=O)C23)OCO4)cc(OC)c1O (stereo unspecified) + COC1C(OC(N)=O)C(O)C(Oc2ccc3c(O)c(NC(=O)c4ccc(O)c(CC=C(C)C)c4)c(=O)oc3c2C)OC1(C)C, the IC50 (second compound 0.0316 µM) was 5.98 µM, the IC50 (second compound 0.1 µM) was 7.74 µM and the IC50 (second compound 0.316 µM) was 8.38 µM. For the same compound, the IC50 (second compound 1 µM) was 7 µM, the IC50 (second compound 3.16 µM) was 7.13 µM and the IC50 (second compound 10 µM) was 7.81 µM. It also gave a viability, T/C [1] of 98%, a viability, T/C [2] of 91% and a viability, T/C [3] of 100%. It also gave a viability, T/C [4] of 98.6%, a viability, T/C [5] of 74.1% and a viability, T/C [6] of 30.7%. The viability, T/C [7] was 99.7%, the viability, T/C [8] was 89.4% and the viability, T/C [9] was 93.9%. The viability, T/C [10] was 88.3%, the viability, T/C [11] was 72.9% and the viability, T/C [12] was 43.2%. It also gave a viability, T/C [13] of 107%, a viability, T/C [14] of 97.7% and a viability, T/C [15] of 106%. It also gave a viability, T/C [16] of 90%, a viability, T/C [17] of 69.6% and a viability, T/C [18] of 46.4%. For the same compound, the viability, T/C [19] was 96.2%, the viability, T/C [20] was 93.8% and the viability, T/C [21] was 91.9%. It also gave a viability, T/C [22] of 89.2%, a viability, T/C [23] of 72.9% and a viability, T/C [24] of 39.5%. The viability, T/C [25] was 99.7%, the viability, T/C [26] was 97.7% and the viability, T/C [27] was 89.2%. For the same compound, the viability, T/C [28] was 88.6%, the viability, T/C [29] was 81.8% and the viability, T/C [30] was 37.1%. The viability, T/C [31] was 72.1%, the viability, T/C [32] was 84.5% and the viability, T/C [33] was 89.4%. The viability, T/C [34] was 76.1%, the viability, T/C [35] was 85.1% and the viability, T/C [36] was 41.6%.

Work on O=c1[nH]cc(F)c(=O)[nH]1 + COC1C(OC(N)=O)C(O)C(Oc2ccc3c(O)c(NC(=O)c4ccc(O)c(CC=C(C)C)c4)c(=O)oc3c2C)OC1(C)C yielded an IC50 (second compound 0.0316 µM) of 2.52 µM, an IC50 (second compound 0.1 µM) of 2.29 µM and an IC50 (second compound 0.316 µM) of 2.15 µM. The IC50 (second compound 1 µM) was 2.25 µM, the IC50 (second compound 3.16 µM) was 2.09 µM and the IC50 (second compound 10 µM) was 2.1 µM. For the same compound, the viability, T/C [1] was 109%, the viability, T/C [2] was 100% and the viability, T/C [3] was 108%. The viability, T/C [4] was 108%, the viability, T/C [5] was 36.1% and the viability, T/C [6] was 16%. For the same compound, the viability, T/C [7] was 105%, the viability, T/C [8] was 107% and the viability, T/C [9] was 95.2%. It also gave a viability, T/C [10] of 99.6%, a viability, T/C [11] of 30.7% and a viability, T/C [12] of 14.9%. For the same compound, the viability, T/C [13] was 105%, the viability, T/C [14] was 94.9% and the viability, T/C [15] was 105%. For the same compound, the viability, T/C [16] was 87.9%, the viability, T/C [17] was 30.8% and the viability, T/C [18] was 13.1%. The viability, T/C [19] was 108%, the viability, T/C [20] was 98.9% and the viability, T/C [21] was 106%. The viability, T/C [22] was 107%, the viability, T/C [23] was 26.9% and the viability, T/C [24] was 13.1%. For the same compound, the viability, T/C [25] was 91.3%, the viability, T/C [26] was 96.7% and the viability, T/C [27] was 108%. It also gave a viability, T/C [28] of 88.2%, a viability, T/C [29] of 28.2% and a viability, T/C [30] of 13.8%. It also gave a viability, T/C [31] of 94.5%, a viability, T/C [32] of 91.9% and a viability, T/C [33] of 86%. It also gave a viability, T/C [34] of 83.7%, a viability, T/C [35] of 31.6% and a viability, T/C [36] of 18.1%.
